Reference: patent US8173423B2, “Diagnosis and treatment of T-cell acute lymphoblastic leukemia” (VIB VZW, priority 2006, dated 2012)
Non-standard residues stand in square brackets, D forms with d. Residues, ends and D or L forms follow the SMILES beside them. *: point of attachment. Nle = CCCC[C@H](N)C(=O)O; Cbz = O=C(OCc1ccccc1)*

Tests used:
RPMI-8402 cells [1] = experiment: Differentiation of T-ALL cell line after MYB knockdown (FACS of CD1a, CD3, CD4, CD8); format: cell-based, human
Experimental: (§1) DND-41, HSB-2, RPMI-8402, ALL-SIL, MOLT-4, LOUCY, P12-ICHIKAWA, CCRF-CEM (DSMZ, Braunschweig, Germany) were cultured in RPMI-1640 supplemented with 20% fetal calf serum. The number or percentage of viable cells was counted with a Vi-cell XR cell viability analyzer (Beckman Coulter, Fullerton, Calif.). For differentiation experiments, cells were cultured during a period of 6 days and electroporated on the first day and again on the 4th day with 50 nM siRNA. MYB stealth select siRNAs were purchased from Invitrogen (Carlsbad, Calif.). […] Electroporation with a stealth siRNA directed against ERBB4 (Invitrogen, Carlsbad, Calif.), a gene not expressed in these cell lines, served as a control. […] For inhibition of NOTCH1, we treated the cell ines with 1 μM of Compound E (gamma-secretase inhibitor XXI, Calbiochem, San Diego, Calif.) or DMSO (control). The percentage proliferation was calculated by comparing the increase of the number of viable cells from treated cells to the increase of the number of viable cells treated with DMSO and electroporated with a control siRNA, and this for a proliferation period of 3 days.
(§2) Analysis of CD1a, CD3, CD4 and CD8 expression and cell cycle analysis was performed on 0.3-1×10^6 cells 6 days after the first electroporation with siRNA. We used the PE/CD1a, and the TriTEST CD4 FITC/CD8 PE/CD3 PerCP Reagent kit (Becton Dickinson, San Jose, Calif.) and the CycleTEST™ PLUS DNA Reagent Kit (Becton Dickinson). After staining, the cells were detected on a FACSCanto Flow Cytometer (Becton Dickinson) and the data were analyzed with the BD FACSDiva software (Becton Dickinson). Unstained cells and cells treated with ERBB4 siRNA were used as controls. Cell sorting was performed after staining of the cells with the TriTEST CD4/CD8/CD3 kit. Cells were separated into two fractions (differentiated and undifferentiated) using the FACSVantage SE system (Becton Dickinson).

MOLT-4 cells = experiment: as above; format: cell-based, human
Experimental: as §1, §2

ALL-SIL cells [2] = experiment: as above; format: cell-based, human
Experimental: as §1, §2

MYB = experiment: Knockdown of MYB expression by siRNA electroporation, protein blot analysis; format: cell-based, human; details: among MYB stealth select siRNAs
Experimental: FIG. 1: Effect of knockdown of MYB expression on T-ALL cell lines. (a) Protein blot analysis showing that electroporation of three different MYB siRNAs in RPMI-8402 cells causes a decrease of MYB expression, compared with electroporation with no siRNA or control siRNA (ERBB4). […] Control cells were treated with dimethylsulfoxide or a control siRNA. Error bars indicate s.e.m.
DND-41, HSB-2, RPMI-8402, ALL-SIL, MOLT-4, LOUCY, P12-ICHIKAWA, CCRF-CEM (DSMZ, Braunschweig, Germany) were cultured in RPMI-1640 supplemented with 20% fetal calf serum. The number or percentage of viable cells was counted with a Vi-cell XR cell viability analyzer (Beckman Coulter, Fullerton, Calif.). For differentiation experiments, cells were cultured during a period of 6 days and electroporated on the first day and again on the 4th day with 50 nM siRNA. MYB stealth select siRNAs were purchased from Invitrogen (Carlsbad, Calif.). […] Electroporation with a stealth siRNA directed against ERBB4 (Invitrogen, Carlsbad, Calif.), a gene not expressed in these cell lines, served as a control. […] The percentage proliferation was calculated by comparing the increase of the number of viable cells from treated cells to the increase of the number of viable cells treated with DMSO and electroporated with a control siRNA, and this for a proliferation period of 3 days. […]

RPMI-8402 cells [3] = experiment: Proliferation, viability and cell cycle of T-ALL cell line (viable cell count, FACS); format: cell-based, human; details: for proliferation: proliferation period of 3 days
Experimental: as §1, §2
(§3) Cell lines were electroporated every four days with 50-250 nM siRNA. MYB stealth select siRNAs (MYB-HSS106819) were purchased from Invitrogen (Carlsbad, Calif.).

ALL-SIL cells [4] = experiment: as above; format: cell-based, human; details: for proliferation: proliferation period of 3 days
Experimental: as §1, §2, §3

T-ALL cells = details: Miele 2006; cited from earlier work
ALL-SIL = details: reference 4; cited from earlier work
MOLT-4 = details: reference 4; cited from earlier work
RPMI-8402 = details: reference 4; cited from earlier work
melanoma xenografts = details: Miele 2006; cited from earlier work
melanoma cell lines = details: Miele 2006; cited from earlier work
[5] = tested on: Ras-transformed fibroblasts; details: Miele 2006; cited from earlier work
[6] = 50 nM siRNA electroporated day 1 and day 4, 6 days
[7] = flow-sorted cells analysed 10 d later
[8] = siRNA electroporation and/or 1 μM Compound E, vs DMSO and control siRNA

Compound: MYB siRNA 1: MYB stealth select siRNA (Invitrogen), sequence 5′UAUAGUGUCUCUGAAUGGCUGCGGC (SEQ ID NO:1) with complementary strand SEQ ID NO:2 (chain 2 GCCGCAGCCAUUCAGAGACACUAUA; Invitrogen Stealth Select siRNA, chemistry not given here)
- differentiation (changes in expression of CD1a, CD3, CD4 or CD8 cell surface markers) (RPMI-8402 cells [1]; [6]): results in the differentiation
- reversibility of differentiation (RPMI-8402 cells [1]; [7]): irreversible
- differentiation (changes in expression of CD1a, CD3, CD4 or CD8 cell surface markers) (MOLT-4 cells; [6]): results in the differentiation
- reversibility of differentiation (MOLT-4 cells; [7]): irreversible
- differentiation (changes in expression of CD1a, CD3, CD4 or CD8 cell surface markers) (ALL-SIL cells [2]; [6]): results in the differentiation
- reversibility of differentiation (ALL-SIL cells [2]; [7]): irreversible
- efficiency of siRNA (MYB): most efficient
- cell cycle (RPMI-8402 cells [3]; siRNA electroporation): only a limited effect
- proliferation (RPMI-8402 cells [3]; [8]): only a limited effect
- viability / cell survival (RPMI-8402 cells [3]; [8]): only a limited effect
- cell cycle (ALL-SIL cells [4]; siRNA electroporation): only a limited effect
- proliferation (ALL-SIL cells [4]; [8]): only a limited effect
- viability / cell survival (ALL-SIL cells [4]; [8]): only a limited effect

Compound: C[C@H](NC(=O)Cc1cc(F)cc(F)c1)C(=O)N[C@H]1N=C(c2ccccc2)c2ccccc2N(C)C1=O [Compound E, (S, S)-2-[2-(3,5-Difluorophenyl)-acetylamino]-N-(1-methyl-2-oxo-5-phenyl-2,3-dihydro-1H-benzo[e][1,4]diazepin-3-yl)-propionamide]
- growth (T-ALL cells): causes growth arrest
- proliferation (ALL-SIL): inhibit the proliferation
- proliferation (RPMI-8402 cells [3]; [8]): inhibition of the proliferation
- proliferation (ALL-SIL cells [4]; [8]): inhibition of the proliferation
- sensitivity to GSI treatment (MOLT-4): not sensitive
- proliferation (RPMI-8402): inhibit the proliferation

Compound: CCCC[C@@H](C=O)NC(=O)[C@H](CC(C)C)NC(=O)[C@H](CC(C)C)NC(=O)OCc1ccccc1 [z-Leu-leu-Nle-CHO] (Cbz-Leu-Leu-[Nle]-aldehyde)
- apoptosis (melanoma xenografts): induces apoptosis
- apoptosis (melanoma cell lines): induces apoptosis

Compound: CCC(C)C(NC(=O)OCc1ccccc1)C(=O)NC(C=O)CC(C)C (stereo not drawn) [cbz-IL-CHO] (Cbz-Ile-Leu-aldehyde; configuration not given here)
- antineoplastic activity [5]: Notch-1—dependent antineoplastic activity
